Source: patent publication US12257290B2, “PIC1 inhibition of myeloperoxidase oxidative activity in an animal model” (priority 2018, dated 2025)
Ends that are not written are not given here.

Tests used:
Assay type in all cases: cell-based
human neutrophils [1] = assay: MPO-initiated NET formation by human neutrophils (fluorescence microscopy, PicoGreen free DNA); settings: for reduction in free DNA (PicoGreen): vs MPO with no inhibitor
Protocol: (§1) Neutrophils from the blood of healthy volunteers were purified from heparinized blood by Hypaque-Ficoll step gradient centrifugation, dextran sedimentation, and hypotonic lysis, as previously described.
(§2) A Neutrophil Extracellular Trap assay was performed in a microtiter plate as follows. The formation of NETs was induced by incubating 2.0×10^5 neutrophils in a 96 well tissue culture plates with RPMI media alone, or adding 0.05% of H2O2, or 12 nM PMA, or 8 μg/ml MPO, or PA-dPEG24 at various concentrations. For immune complex sera induced NET formation, activated sera was made by adding 5 μl of ovalbumin-anti-ovalbumin immune complex to 5% NHS in 0.3 ml of GVBS^++. This combination was allowed to incubate for 30 minutes at 37° C., and then 0.05 ml was added to the neutrophils in RPMI. Cells were then incubated for 1.5 hours at 37° C. in 5% CO2 incubator.
(§3) NET formation was quantitatively assayed as follows. Free DNA was measured by PicoGreen in the supernatant recovered from the NET microtiter plate well assay. Five hundred units of […] (Fisher) were added to each well to allow for digestion of released extracellular DNA for 10 minutes in 37° C. incubator. The preparation was then aliquoted into an adjacent well and mixed 1:1 with prepared PICO green reagent (Fisher). The fluorescence was then quantified on a BioTek microplate reader at Excitation 485 nm/Emission 528 nm.
NET formation was assayed by fluorescence microscopy. Purified human neutrophils were assayed on a glass slide as follows. Cells were combined with RPMI media and the indicated stimuli as mentioned above in a tube and then aliquoted onto a glass slide circled with a hydrophobic slide marker. The slides were incubated for 1.5 hours at 37° C. in a 5% CO2 incubator at 37 degrees for 1.5 hours. Slides were fixed overnight with 4% paraformaldehyde at 4° C.
For all staining, the following conditions were used. Slides were washed in PBS and incubated in blocking solution (2% normal goat serum+2% bovine serum albumin in PBS) for 1 hour at room temperature. Then the slides were incubated with primary antibody at 1:300 in 2% BSA in PBS for 1 hour at room temperature. Slides were washed in PBS 3 times and incubated in fluorescent-labeled secondary antibody at 1:1000 or DAPI (Southern Biotech) at 0.25 pg/ml final in 2% BSA in PBS for 1 hour at room temperature. Slides were then washed 3 times in PBS and were imaged. Cells were visualized using a DP70 Digital Camera (Olympus Center, Valley Forge, PA), mounted on a BX50, Olympus microscope. Staining antibody pairs used were rabbit anti-MPO (Thermo Scientific) and rabbit anti-Histone H3 (Abcam) with the secondary goat anti-rabbit Alexa Fluor 488 (Novus Biologicals). […]

human neutrophils [2] = assay: Immune complex-activated serum-initiated NET formation by human neutrophils (fluorescence microscopy, PicoGreen free DNA); settings: for decrease of free DNA (PicoGreen): immune complex-activated sera + hydrogen peroxide
Protocol: as §1, §2, §3
(§4) NET formation was assayed by fluorescence microscopy. […]
PA-dPEG24 inhibits immune complex-initiated NET formation by human neutrophils. A potential relationship between immune complex-initiated complement-activated human sera and NET formation by human neutrophils was evaluated. […] The immune complex-initiated complement-activated human sera was then incubated with purified human neutrophils resulting in NET formation quantified by free DNA measurement with PicoGreen. The relative contribution of immune complexes was initially evaluated by themselves compared with immune complex-initiated complement-activated human sera for generation of NETs. […]

human neutrophils [3] = assay: PMA-initiated NET formation by human neutrophils (fluorescence microscopy, PicoGreen free DNA); settings: 5 mM PA-dPEG24, PMA + hydrogen peroxide
Protocol: as §1, §2
as §3, with “The preparation was then aliquoted into an adjacent well and mixed 1:1 with prepared PICO green reagent (Fisher).” left out
as §4

With “IALILEPICCQERAA-dPEG24 (cysteine pairing not given here) [PA-dPEG24, 15-amino acid PEGylated peptide, 24 PEG moieties at the C-terminus]” the “reduction in free DNA (PicoGreen)” value (human neutrophils [1]; 1.1 mM PA-dPEG24, P=0.02) was 30%, the “reduction in free DNA (PicoGreen)” value (human neutrophils [1]; 4.5 mM PA-dPEG24, P=0.001) was 3.7 fold and the “NET formation by fluorescence microscopy” value (human neutrophils [1]; 5 mM PA-dPEG24, MPO + hydrogen peroxide) was “blocked”. For the same substance, the “appearance of neutrophils incubated with PA-dPEG24 alone, fluorescence microscopy” value (human neutrophils [1]; PA-dPEG24 only, no stimulus) was “appeared normal”, the “decrease of free DNA (PicoGreen)” value (human neutrophils [2]; 2.2 mM PA-dPEG24, P=0.037) was 23% and the “decrease of free DNA (PicoGreen)” value (human neutrophils [2]; 4.5 mM PA-dPEG24, P<0.001) was 3 fold. The “NETs identified by fluorescence microscopy” value (human neutrophils [2]; 5 mM PA-dPEG24, immune complex-initiated complement-activated sera) was “no NETs were identified”, the “NETs identified by fluorescence microscopy” value (human neutrophils [3]) was “did not generate NETs” and the “inhibition of free DNA elaboration (PicoGreen)” value (human neutrophils [3]; vs no inhibitor, P=0.01) was 2.6 fold.
